Experimental data reported in publication PMC7997369, “Assessment of the Multifunctional Behavior of Lupin Peptide P7 and Its Metabolite Using an Integrated Strategy” (Journal of Agricultural and Food Chemistry, 2020).
Values joined by “and” are separate entries in the source; they are usually repeats but may differ in a detail not shown here. Equal entries are not always repeated. No end group written: not given here.

Assays:
DPP-IV = DPP-IV (Homo sapiens, UniProt P27487); assay: Stability of P7 in the presence of DPP-IV; assay type: in vitro ADME; conditions: P7 (500 μM) with purified recombinant DPP-IV, Tris–HCl pH 8.0, 37 °C, 5, 30 and 120 min; LC–MS MRM
DPP-IV, sequence (P27487 whole entry): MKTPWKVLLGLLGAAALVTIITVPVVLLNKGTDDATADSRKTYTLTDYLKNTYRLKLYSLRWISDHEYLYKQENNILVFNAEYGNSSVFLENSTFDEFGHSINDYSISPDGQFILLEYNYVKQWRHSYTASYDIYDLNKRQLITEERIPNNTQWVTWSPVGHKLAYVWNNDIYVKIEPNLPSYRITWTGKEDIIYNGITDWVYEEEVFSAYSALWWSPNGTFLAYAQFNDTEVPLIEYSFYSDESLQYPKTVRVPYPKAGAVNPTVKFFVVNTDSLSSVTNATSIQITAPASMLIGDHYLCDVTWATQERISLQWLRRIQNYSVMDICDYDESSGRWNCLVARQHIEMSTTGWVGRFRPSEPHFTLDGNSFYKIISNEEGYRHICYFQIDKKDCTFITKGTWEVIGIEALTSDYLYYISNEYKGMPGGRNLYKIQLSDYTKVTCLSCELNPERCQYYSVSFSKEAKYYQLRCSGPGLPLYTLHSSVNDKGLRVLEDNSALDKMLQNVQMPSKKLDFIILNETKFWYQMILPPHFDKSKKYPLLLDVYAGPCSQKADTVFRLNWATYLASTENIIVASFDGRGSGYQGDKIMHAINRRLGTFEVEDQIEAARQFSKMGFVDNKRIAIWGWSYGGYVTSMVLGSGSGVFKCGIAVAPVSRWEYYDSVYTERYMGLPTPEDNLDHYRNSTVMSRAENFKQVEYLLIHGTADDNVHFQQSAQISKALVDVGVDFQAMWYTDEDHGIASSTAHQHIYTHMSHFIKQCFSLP
Procedure: The experiments were carried out in microcentrifuge tubes. Each reaction (100 μL) was prepared by adding the reagents in the following order: 1× DPP-IV assay buffer [20 mM Tris–HCl at pH 8.0 containing 100 mM NaCl and 1 mM ethylenediaminetetraacetic acid (EDTA)] (80 μL), P7 solution (10 μL, 500 μM), and finally DPP-IV (10 μL). Subsequently, the samples were mixed and kept at 37 °C in a thermoblock for 5, 30, and 120 min. At the end of the reactions, DPP-IV was inactivated by adding 200 μL of precooled acetonitrile (ACN) to each tube; then the samples were centrifuged for 10 min at 13300g at 4 °C; and the supernatant was collected. P7 and LTFPG were loaded onto the enrichment column (Zorbax 300SB-C18, 5 μm pore size) at a flow rate of 4 μL/min using isocratic 100% C solvent phase (99% water, 1% ACN, and 0.1% formic acid). After the cleanup, P7 and LTFPG were separated on a 150 mm × 75 μm analytical column (Zorbax300SB-C18, 5 μm pore size) at the constant flow rate of 300 nL/min. The LC solvent A was 95% water, 5% ACN, and 0.1% formic acid; solvent B was 5% water, 95% ACN, and 0.1% formic acid. The nanopump gradient program was as follows: 5% solvent B (0 min), 70% solvent B (0–8 min), and back to 5% solvent B in 2 min. Post-time was 10 min. The drying gas temperature was 300 °C, and the flow rate was 3 L/min (nitrogen). Data acquisition occurred in positive ionization mode. […]

[1] = test system: differentiated Caco-2 cell monolayers; assay: Transepithelial transport and metabolism across differentiated Caco-2 cell monolayers; assay type: in vitro ADME, human; conditions: for detected at the AP side, P7 tested within a mixture: AP solutions of differentiated Caco-2 collected after 120 min; for amount in the BL compartment after 60 min, peptide alone / amount in the BL compartment after 60 min, P7 in the mixture / absorbed amount after 2 h, P7 in the mixture: HPLC–Chip–MS/MS; for rate of transport, peptide alone: AP pH 6.0 (MES), BL pH 7.4
Procedure: For differentiation, Caco-2 cells were seeded on polycarbonate filters with a 12 mm diameter and 0.4 μm pore diameter (Transwell, Corning, Inc., Lowell, MA, U.S.A.) at a 3.5 × 10^5 cells/cm^2 density in complete medium supplemented with 10% FBS in both AP and BL compartments for 2 days to allow for the formation of a confluent cell monolayer. Starting from day 3 after seeding, cells were transferred to FBS-free medium in both compartments, supplemented with ITS [final concentration of 10 mg/L insulin (I), 5.5 mg/L transferrin (T), and 6.7 μg/L sodium selenite (S), GIBCO–Invitrogen, San Giuliano Milanese, Italy] only in the BL compartment, and allowed to differentiate for 18–21 days with regular medium changes 3 times weekly.[12]
The transepithelial electrical resistance (TEER) of differentiated Caco-2 cells was measured at 37 °C using the voltmeter apparatus Millicell (Millipore Co., Billerica, MA, U.S.A.), immediately before and at the end of the transport experiments. In addition, at the end of transport experiments, cells were incubated from the AP side with 1 mM phenol red in phosphate-buffered saline (PBS) containing Ca^2+ (0.9 mM) and Mg^2+ (0.5 mM) for 1 h at 37 °C, to monitor the paracellular permeability of the cell monolayer. The BL solutions were then collected, and NaOH (70 μL, 0.1 N) was added before reading the absorbance at 560 nm by a microplate reader Synergy H1 from Biotek (Winooski, VT, U.S.A.). Phenol red passage was quantified using a standard phenol red curve. Only filters showing TEER values and phenol red passages similar to untreated control cells were considered for peptide transport analysis.
Prior to experiments, the cell monolayer integrity and differentiation were checked by TEER measurement as described in detail above. Cells were then washed twice, and peptide transportation by intestinal cells was assayed. Transport experiments were performed in transport buffer solution (137 mM NaCl, 5.36 mM KCl, 1.26 mM CaCl2, 1.1 mM MgCl2, and 5.5 mM glucose) following conditions previously described.[13] To reproduce the pH conditions existing in vivo in the small intestinal mucosa, AP solutions were maintained at pH 6.0 (buffered with 10 mM morpholinoethanesulfonic acid) and BL solutions were maintained at pH 7.4 (buffered with 10 mM N-2-hydroxyethylpiperazine-N-4-[…]). Prior to transport experiments, cells were washed twice with 500 μL of PBS containing Ca^2+ and Mg^2+. Peptide transportation by mature Caco-2 cells was assayed by loading the AP compartment with P7 and/or LTFPG (500 μM) in the AP transport solution (500 μL) and the BL compartment with the BL transport solution (700 μL). The plates were incubated at 37 °C, and the BL solutions were collected at different time points (i.e., 15, 30, 60, 90, and 120 min) and replaced with fresh solutions prewarmed at 37 °C. All BL solutions together with the AP solutions collected at the end of the transport experiment were stored at −80 °C prior to analysis. Three independent transport experiments were performed, each in duplicate.
Quantitative analysis of P7 in the AP and BL samples were carried out by ion trap mass spectrometry (MS) in multiple reaction monitoring (MRM) mode, monitoring two of the most intense diagnostic transitions, after optimization of the acquisition parameters, such as retention time, MS profile, and tandem mass spectrometry (MS/MS) fragmentation spectrum.[14],[15] All further details regarding liquid chromatography–tandem mass spectrometry (LC–MS/MS) operating conditions and method validations are described in the Supporting Information.
The metabolic degradation products deriving from the hydrolytic activity of brush border membrane peptidases were investigated by an untargeted approach (for further details, see the Supporting Information). […]

[2] = target: purified human recombinant DPP-IV enzyme (Homo sapiens, UniProt P27487); conditions: read-out: IC50, in vitro on the DPP-IV enzyme; cited from earlier work
purified human recombinant DPP-IV enzyme, sequence (P27487 whole entry): as above

[3] = untargeted HPLC–Chip–MS/MS, × = detected
[4] = differentiated Caco-2, AP to BL, peptide alone, 500 μM in AP, 37 °C, AP pH 6.0, BL pH 7.4
[5] = differentiated Caco-2, AP to BL, peptide alone, 500 μM in AP, 37 °C, AP pH 6.0, BL pH 7.4, mean ± sd
[6] = differentiated Caco-2 on Transwell, AP to BL, peptide alone, 500 μM in AP, 37 °C, BL sampled 15–120 min, HPLC–Chip–MS/MS MRM, mean ± sd, three independent experiments
[7] = differentiated Caco-2, AP to BL, mixture with P3 and P5, each 500 μM in AP, 37 °C
[8] = differentiated Caco-2, AP to BL, mixture with P3 and P5, each 500 μM in AP, 37 °C, mean ± sd

Row | Substance | hydrolysis of P7 by DPP-IV (formation of LTFPG) (DPP-IV) | detected at the AP side, P7 tested within a mixture [1, 3] | amount in the BL compartment after 60 min, peptide alone [1, 4] [nmol] | amount in the BL compartment after 60 min, peptide alone [1, 5] [µg] | lag period for transport, peptide alone ([1]; differentiated Caco-2, AP to BL, peptide alone, 500 μM in AP, AP pH 6.0, BL pH 7.4, 37 °C) | rate of transport, peptide alone [1, 6] [ng mL^–1 min^–1] | transport in the presence of wortmannin ([1]; mature Caco-2 cells, wortmannin, inhibitor of the transcellular passage) | detected at the AP side, P7 tested as individual species (alone) ([1]; AP solutions of differentiated Caco-2 at the end of the transport experiment, untargeted HPLC–Chip–MS/MS, × = detected) | fold higher amount in BL when tested alone than in the mixture ([1]; after 60 min of incubation) | amount in the BL compartment after 60 min, P7 in the mixture [1, 7] [nmol] | amount in the BL compartment after 60 min, P7 in the mixture [1, 8] [µg] | absorbed amount after 2 h, P7 in the mixture [1, 7] [nmol] | absorbed amount after 2 h, P7 in the mixture [1, 8] [µg] | lag period for transport, P7 in a mixture ([1]; differentiated Caco-2, AP to BL, mixture with P3 and P5, each 500 μM in AP, AP pH 6.0, BL pH 7.4, 37 °C) | rate of transport, P7 in a mixture ([1]; differentiated Caco-2 on Transwell, AP to BL, mixture with P3 and P5, each 500 μM in AP, AP pH 6.0, BL pH 7.4, 37 °C, BL sampled 15–120 min, HPLC–Chip–MS/MS MRM, mean ± sd, three independent experiments) [ng mL^–1 min^–1] | IC50 [2] [µM]
1 | LTFPG [LTFPG] | clearly detectable after 2 h of incubation | × | 0.412 | 0.22 ± 0.003 | without a lag period | 3.7 ± 0.8 | transported also in the presence of wortmannin |  |  |  |  |  |  |  |  | 
2 | LTFPGSAED [P7] | subjected to DPP-IV hydrolysis | × | 0.278 | 0.26 ± 0.02 |  | 4.2 ± 0.6 |  | × | about 4 fold | 0.064 | 0.06 ± 0.003 | 0.235 | 0.22 ± 0.5 | 27.7 min and 27 min | 1.98 ± 0.21 | 228
